Assay results: patent publication US5985292A, “Active phospholipids as a vector for active molecules” (Roussel-UCLAF, priority 1993, dated 1999)

Tested on: comedones
Conditions: topical
Procedure: As an example, the comedolytic power of all-trans 2-retinoyl phosphatidinyl ethanol was tested following the protocol below:
The animal chosen for the test of comedolytic activity was the Hairless Rhino (hr rh) mouse of female sex, this choice being due to the fact that the skin of such an animal has a high density of comedones having a large diameter and narrow orifice. The use of comedolytic agents on the skin of the animal provokes the opening of the orifice of the comedones, the release of the horny material and the sebum that it contains.
Two groups comprising six mice each which were six-week's old at the start of the test and weighing on average 18 grams each were used. The first group were mice treated with distilled water (negative control group) and the second group were mice treated with the product under study. The treatment consisted of a topical use of the product studied on the interscapular area at a dose of 0.02 ml, 5 days out of 7, for 21 days. The animals were sacrificed at the end of three weeks of treatment, 24 hours after the last application.
Biopsies of the skin were then taken from the treated areas of the animals and from these biopsies, sections were prepared for a standard morphometric study by methods known to a person skilled in the art. The following parameters were measured: diameter of the opening of the comedon at the surface i.e d […]
comedonian profile i.e R = d/D
The ratio R=d/D allowed the action of the comedolytic agents to be quantified.
The percentage of inhibition of the comedones was calculated for the product under study relative to the negative control, i.e. the following ratio: [formula]

all-trans 2-retinoyl phosphatidinyl ethanol
% inhibition of the comedones relative to the negative control (0.1% in solution in ethylenediglycol, interscapular, 0.02 ml, 5 days out of 7, for 21 days): 14.1%
comedonian profile R = d/D (diameter of the opening of the comedon at the surface / diameter of the comedon) (0.1% in solution in ethylenediglycol, interscapular, 0.02 ml, 5 days out of 7, for 21 days, negative control (distilled water) R = 0.78): 0.89
comedolytic activity (in words) (at a dose of 0.1%, 21 days): good comedolytic activity
